Test results taken from ChEMBL document CHEMBL1681718, “Hepatitis C NS5B polymerase inhibitors: functional equivalents for the benzothiadiazine moiety” (Bioorg Med Chem Lett, 2011).

Columns and labels:
[1] = Inhibition of HCV 1b BK NS5B polymerase after 3 hrs by [3H]UTP incorporation assay; design: species or system Hepatitis C virus (isolate BK)
[2] = Inhibition of HCV 1a H77 NS5B polymerase after 3 hrs by [3H]UTP incorporation assay; design: species or system Hepatitis C virus (isolate H77)
[3] = system: Hepatitis C virus; experiment: Antiviral activity against HCV 1b N infected in EN5-3 cells by SEAP reporter gene assay; format: functional, organism-based, Hepacivirus hominis; conditions: genotype 1b strain N
[4] = system: Hepatitis C virus; experiment: Antiviral activity against HCV 1a isolate H77 infected in EN5-3 cells by SEAP reporter gene assay; format: functional, organism-based, Hepacivirus hominis; conditions: genotype 1a H77, EN5-3

SMILES	IC50 [1] [nM]	IC50 [2] [nM]	EC50 [3] [nM]	EC50 [4] [nM]
CC(C)(C)CC[C@@]1(C)C(=O)/C(=C2/C=Cc3cc(NS(C)(=O)=O)ccc3N2)C(=O)c2ccccc21	29	17	22	82
CC(C)(C)CC[C@@]1(C)C(=O)/C(=C2/C=Cc3ccccc3N2)C(=O)c2ccccc21	5550	1680	–	–
CCOC(=O)C1=C/C(=C2\C(=O)c3ccccc3[C@@](C)(CCC(C)(C)C)C2=O)Nc2ccc(NS(C)(=O)=O)cc21	739	315	660	3080
CC(C)(C)CC[C@@]1(C)C(=O)/C(=C2/C=C(CO)c3cc(NS(C)(=O)=O)ccc3N2)C(=O)c2ccccc21	56	12	50	781
CC(C)(C)CC[C@@]1(C)C(=O)/C(=C2/C=C(C=O)c3cc(NS(C)(=O)=O)ccc3N2)C(=O)c2ccccc21	25	15	168	1200
CC(C)(C)CC[C@@]1(C)C(=O)/C(=C2/C=C(C(=O)O)c3cc(NS(C)(=O)=O)ccc3N2)C(=O)c2ccccc21	5	3	221	3320
CC(C)(C)CC[C@@]1(C)C(=O)C(C2=NCc3cc(NS(C)(=O)=O)ccc3N2)=C(O)c2ccccc21	4200	830	–	–
CC(C)(C)CC[C@@]1(C)C(=O)C(C2=NS(=O)(=O)c3cc(NS(C)(=O)=O)ccc3N2)=C(O)c2ccccc21	7	4	2	4

More lines, in order of falling IC50 [1], values ahead:

IC50 [1] [nM]	IC50 [2] [nM]	EC50 [3] [nM]	EC50 [4] [nM]	SMILES
1020	4300	–	–	CC(C)CCC1=C/C(=C2\C(=O)c3ccccc3[C@@](C)(CCC(C)(C)C)C2=O)Nc2ccc(NS(C)(=O)=O)cc21
333	133	245	1040	CNC(=O)C1=C/C(=C2\C(=O)c3ccccc3[C@@](C)(CCC(C)(C)C)C2=O)Nc2ccc(NS(C)(=O)=O)cc21
238	72	99	932	CN(C)C(=O)C1=C/C(=C2\C(=O)c3ccccc3[C@@](C)(CCC(C)(C)C)C2=O)Nc2ccc(NS(C)(=O)=O)cc21
52	32	20	135	CC1=C/C(=C2\C(=O)c3ccccc3[C@@](C)(CCC(C)(C)C)C2=O)Nc2ccc(NS(C)(=O)=O)cc21
